Target: Tv2483 (Treponema vincentii, UniProt S3MDF0, R115A)
Assay: biochemical

## N=C(N)NCCC[C@H](N)C(=O)O [L-arginine]
  Kd: 6.3 µM

— publication doi:10.1101/350942v2 (biorxiv, 2018)
